# Experimental data: US10954549B2, “Detection and classification of an anticoagulant using a clotting assay” (Haemonetics Corporation, priority 2014, dated 2021)
# Legend:
# citrated whole blood [1] = test: TEG Kaolin test of blood spiked with anticoagulant; format: biochemical, human
# Source text: (§1) The TEG clotting assay was used to determine if low, normal, and high doses of dabigatran, rivaroxaban, and apixaban could be detected in blood spiked with these compounds. Three oral anticoagulants (OAC), namely dabigatran, rivaroxaban, and apixaban, were spiked into blood obtained from 14 healthy volunteer human donors. For each OAC tested, citrated blood from three donors was spiked with three different concentrations of the active drug (i.e., the compound). The spiked blood samples and control samples spiked with diluent were tested with the TEG® 5000 Thrombelastograph® Hemostasis Analyzer (Haemonetics Corporation, Braintree, Mass., USA) using the Kaolin and RapidTEG® reagents (Haemonetics). Each sample was run in triplicate. All samples were tested with and without ecarin (purchased from Enzyme Research Laboratories, South Bend, IN). This study was IRB approved and all donors were over 18 and signed informed consent forms.
# Dabigatran stock was prepared from the active dabigatran moiety (Alsachim, France) by dissolution in 0.1M HCl and further dilution in 1:1 DMSO:H20. […] Tubes of citrated blood were spiked with this dabigatran stock to create final concentrations of 500, 200, and 50 ng/mL of citrated whole blood.
# Rivaroxaban stock was prepared by agitation of a 20 mg Xarelto tablet (Jannsen, Titusville, N.J.) in a 1:1 DMSO: H20 solution, which was diluted to a final concentration of 20 ng/uL rivaroxaban in 1:1 DMSO:H20. Tubes of citrated blood were spiked with this rivaroxaban stock to create final concentrations of 500, 89, and 22 ng/mL in citrated whole blood. […] Apixaban stock was prepared in a similar manner from a 2.5 mg Eliquis tablet (Bristol-Myers Squibb, New York, N.Y.), with final concentrations of 1000, 500, and 250 ng/mL in whole blood. Apixaban is approved for prevention of VTE in elective hip or knee replacement surgery (2.5 mg BID) and for prevention of stroke and systemic embolism in patients with non-valvular AF (5 mg BID) (see Bristol-Myers SP, EEIG. apixaban summary of product characteristics). […] Control samples, prepared for each tested drug, included a solvent control containing only citrated blood and the diluent used to dilute the drug stock, and an unadulterated citrate blood tube.
# Testing was performed on TEG-5000 analyzers (Haemonetics Corp., Braintree, Mass., USA) using Kaolin vials, 0.2M CaCl2, RapidTEG (rTEG) vials, diluent water, and disposable clear cups and pins provided by the manufacturer (Haemonetics, Braintree, Mass.), and ecarin (Enzyme Research Laboratories, South Bend, Ind.). All testing was performed in triplicate at each dose, and allowed to continue until the MA (maximum amplitude) parameter defined. The various components of the TEG tracing are depicted in FIG. 3A. The Kaolin test generates an R parameter, which is measured in minutes, and is the time elapsed from the initiation of the test until the point where the onset of clotting provides enough resistance to produce a 2 mm amplitude reading on the TEG tracing. This parameter represents the initiation phase of coagulation related to the function of enzymatic clotting factors. The R parameter has a normal range of 5 to 10 min for kaolin. A prolonged R time indicates slower clot formation. K is a measurement of the time interval from the split point to the point where fibrin cross-linking provides enough clot resistance to produce a 20 mm amplitude reading. The α angle is the angle formed by the slope of a tangent line traced from the R to the K time and a central line measured in degrees. K time and the α angle denote the rate at which the clot strengthens, and is representative of thrombin's cleaving of the available fibrinogen into fibrin. The MA indicates the point at which clot strength reaches its maximum amplitude, measured in millimeters on the TEG tracing, and reflects the end result of maximal platelet-fibrin interaction via the GPIIb-IIIa receptors (see Khurana S et al., J Lab Clin Med. 130:401-411, 1997). […]
# citrated whole blood [2] = test: RapidTEG (rTEG) test of blood spiked with anticoagulant; format: biochemical, human
# Source text: as §1
# The RapidTEG (rTEG) test incorporated both tissue factor and kaolin to generate the conventional kaolin parameters as well as the TEG-ACT parameter, which is measured in seconds. The TEG-ACT is equivalent to the Activated Clotting Time (see Chavez J. J. et al., Anesth. Analg. 99:1290-1294, 2004) and has a normal range of 86 to 118 seconds. A prolonged TEG-ACT time indicates slower clot formation. In addition, velocity curves derived from the above mentioned kaolin and rTEG tests were plotted using TEG software. These curves represent the speed of clot propagation (MRTG, Maximum Rate of Thrombus Generation; and TMRTG, Time to Maximum Rate of Thrombus Generation) (see FIG. 3B).
# For the RapidTEG (rTEG) test, the reagent was reconstituted with 20 μL diluent water, and allowed to stand for 5 minutes per manufacturer instructions. Ten μL of this reconstituted reagent was added to the TEG cup with 20 μl 0.2M CaCl2 for recalcification.
# (§2) 340 μL of the citrated blood sample was added to the cup with these two reagents, and the contents of the cup were mixed 3 times by drawing the contents of the cup up into the pipette and redispensing it into the cup. The test was started immediately after mixing and allowed to run until the MA parameter had defined. The rTEG with ecarin test was performed as the rTEG test above, using 20 μL of an ecarin/CaCl2 solution (0.16M CaCl2; 19EU/mL ecarin).
# citrated whole blood [3] = test: TEG kaolin with ecarin test of spiked blood; format: biochemical, human
# Source text: as §1
# For the kaolin test, 1 mL of citrated blood sample was mixed with kaolin and 340 microliters (μL) of this blood was added to a TEG cup containing 20 μL of 0.2M CaCl2 for recalcification. The kaolin with ecarin test was performed in a similar fashion, using 20 μL of an ecarin/CaCl2 solution (0.16 M CaCl2; 19 EU/mL ecarin).
# Ecarin is derived from the venom of the saw-scaled viper, Echis carinatus. Ecarin activates prothrombin (the precursor of thrombin—see FIG. 5). This activation of prothrombin by ecarin produces meizothrombin, a prothrombin-thrombin intermediate which has a low level of procoagulant enzymatic activity.
# Healthy human volunteers (who are not being administered any anticoagulant), donated blood. Following donation, the blood collected from the donors (which was added to citrate to prevent clotting) was divided into portions, and portions of the blood were spiked with either nothing, dabigatran, or rivaroxaban. The portions were then assayed using thromboelastography, including assays performed in the presence of ecarin.
# citrated whole blood [4] = test: rTEG with ecarin test of spiked blood; format: biochemical, human
# Source text: as §1, §2
# [5] = system: blood from healthy volunteers; test: Thromboelastography R time of spiked blood in the presence of the FXa reagent; format: biochemical, human; conditions: in vitro spiking, increasing concentrations
# Description: Blood from healthy volunteers known not to be taking any oral anticoagulant and without any other significant health issues are analyzed using the FXa or the Ecarin reagent in a TEG® hemostasis analyzer. The FXa reagent (i.e., the Factor Xa reagent) is used to detect the presence (or absence) of an anticoagulant in the blood component being tested. In absence of any oral anticoagulant, the FXa reagent will accelerate the clotting process and result in a very short R-time. In presence of direct thrombin inhibitors and/or anti-Factor Xa anticoagulant(s), the process is slowed down and will cause elongation of the R-time. This difference in R-time is utilized to detect the presence of the oral anticoagulant. The R-time generated from multiple donors was used to construct a reference range. Blood was spiked with either direct thrombin inhibitors or anti-Xa(s) at different concentrations and analyzed using the FXa reagent or the Ecarin reagent. The drug concentrations chosen represent the published therapeutic ranges for these two classes of drugs. This assay was repeated in multiple donors to account for possible donor variations.
# [6] = cited from earlier work
# porcine plasma = test: TEG 6S DTI channel R-time, porcine experimental trauma model; format: in vivo
# Description: The TEG®6S system (Haemonetics Corp., Braintree, Mass.) is based on viscoelasticity measurements using resonance frequency and disposable multi-channel microfluidic cartridges. Blood and plasma from healthy volunteers were spiked with dabigatran in the therapeutic range (in increasing concentrations) and tested with an OAC cartridge with an ecarin based, direct thrombin inhibitor (DTI) channel. This channel was also evaluated with porcine plasma from an experimental trauma model (n=6) where dabigatran levels were measured with dilute TT (Hemoclot®). TEG 6s R-time (reaction time) was correlated to the drug levels.
molecule,measurement,setting,value
"COc1ccc(-n2nc(C(N)=O)c3c2C(=O)N(c2ccc(N4CCCCC4=O)cc2)CC3)cc1 [apixaban, Apixaban]",MA versus control group,"citrated whole blood [1]; 250 ng/mL, still within normal range",significantly different from the control group
same,R time versus non-spiked blood sample,citrated whole blood [1]; highest concentration tested,significantly higher
same,"R, K, α, and MRTG parameters, statistical significance versus control","citrated whole blood [1]; three concentrations per drug, Example 1",able to detect the presence of all tested concentrations
same,"K, α and MRTG parameters versus control or between studied concentrations",citrated whole blood [2],did not show any statistical difference
same,TMRTG parameter sensitivity to presence of drug,citrated whole blood [2],not
same,MA values versus control,citrated whole blood [2]; all studied concentrations,did not change
same,TEG ACT parameter versus control group,citrated whole blood [2]; all tested concentrations (except rivaroxaban 22 ng/mL),significantly different
same,ACT time versus non-spiked blood sample,citrated whole blood [2]; medium and higher concentrations,significantly higher
same,R time in the presence versus absence of ecarin,citrated whole blood [3]; FIGS. 8A-8C,equivalent and significant shortening of R time
same,MA values with ecarin relative to samples run without ecarin,citrated whole blood [3]; kaolin test,statistically different
same,"R, K and TMRTG values on addition of ecarin to the kaolin test",citrated whole blood [3]; treated and control groups,significant decrease
same,α and MRTG values on addition of ecarin to the kaolin test,citrated whole blood [3]; treated and control groups,significant increase
same,TEG-ACT times on addition of ecarin to the RapidTEG test,citrated whole blood [4],significantly decreases
same,RapidTEG α angle when ecarin was added,citrated whole blood [4]; any of the studied concentrations,did not change
same,RapidTEG K values when ecarin was added,citrated whole blood [4]; highest and lowest concentrations,significantly decreased
same,"R-time compared to the reference range, FXa reagent",[5],dose dependent elongation of the R-time
same,half-lives compared,[6]; in vivo,shorter half-lives than dabigatran
same,Cmax,[6]; oral dose of 20 mg,460 ng/mL
same,increased half-life,[6]; patients with severe renal impairment compared to healthy volunteers,up to 44%
"idarucizumab: reversal agent that reverses the anticoagulant effect of dabigatran (Boehringer Ingelheim) (antibody, chains of the INN, looked up, V domains shown) VH: QVQLQESGPGLVKPSETLSLTCTVSGFSLTSYIVDWIRQPPGKGLEWIGVIWAGGSTGYNSALRSRVSITKDTSKNQFSLKLSSVTAADTAVYYCASAAYYSYYNYDGFAYWGQGTLVTVSS VL: DVVMTQSPLSLPVTLGQPASISCKSSQSLLYTDGKTYLYWFLQRPGQSPRRLIYLVSKLDSGVPDRFSGSGSGTDFTLKISRVEAEDVGVYYCLQSTHFPHTFGGGTKVEIK",R-time after administration of the reversal agent,"porcine plasma; after dabigatran, trauma model, baseline 3.4±0.6 min",3.6 ± 0.6 min
same,R time upon administration of the reversal agent,"porcine plasma; five separate swine plasma samples, FIG. 16",returned to baseline
